According to patent US20020142940A1, “Method of inhibiting viral infection using HMG-COA reductase inhibitors and isoprenylation inhibitors” (priority 2000, published 2002):
“And” between values parts separate entries of the source, which are not always exact repeats. Identical values can stand only once. “Also recorded” adds a separate entry of the source.

What was measured:
HPIV-3 [1] = experiment: HPIV-3 replication in HEp-2 cells, plaque assay; type: cell-based; details: for reduction of HPIV-3 replication: 5 μM, 24 hrs treatment, MOI 0.1, titer 2 days after infection; for rescue of lovastatin inhibition of HPIV-3 replication: added to 10 μM lovastatin treated cells, 50 μM GGP, mevalonolactone or FP, cholesterol concentration not given
HPIV-3 [2] = experiment: HPIV-3 syncytia formation in HEp-2 cells; type: cell-based; details: for rescue of lovastatin inhibition of HPIV-3 syncytia formation: added to lovastatin treated cells
[3] = Weight loss in uninfected treated mice; type: in vivo; details: 1 mg/day lovastatin or 50 mg/day gemfibrozil for 11 days
RSV [4] = experiment: RSV replication in mice, lung plaque assay; type: in vivo; details: for peak RSV titer in the lung: mice, oral gavage beginning three days prior to infection, 1 mg/day lovastatin or 50 mg/day gemfibrozil, lungs day 4
RSV [5] = experiment: RSV-induced weight loss and illness in mice; type: in vivo; details: for peak percent weight loss on day 8 post infection: comparison PBS, gemfibrozil, lovastatin treated RSV-infected mice
vaccinia virus = type: in vivo, mice; details: 1 mg/day lovastatin or 50 mg/day gemfibrozil oral gavage beginning three days prior to infection, vs PBS
[6] = tested on: RSV glycoproteins F, G and SH; type: cell-based
RSV [7] = experiment: RSV replication in HEp-2 cell culture, plaque assay; type: cell-based
Procedure: FIG. 5—Lovastatin eliminates RSV replication in cell culture. HEp-2 cell monolayers grown in 96 well plates were treated with either 10 μM lovastatin or left untreated beginning 24 hr prior to RSV infection (moi 0.1). Virus titer was measured for 8 consecutive days after RSV infection daily by plaque assay for eight days post RSV infection by harvesting the entire contents of a well and performing plaque assays in triplicate. RSV growth curve in untreated cells (□) and in cells treated with 10 μM lovastatin ( ? ). Error bars represent standard deviation.
Virus and Cells. The A2 strain of RSV was provided by Dr. R. Chanock, NIH, Bethesda, Md. RSV stocks were prepared as previously described (Graham et al., 1988). HEp-2 cells were maintained in Eagle's minimal essential media supplemented with glutamine, gentamicin, penicillin G, and 10% fetal bovine serum (FBS).
Plaque assay. Two-day-old HEp-2 monolayers, 80% confluent in 12-well plates (Costar, Cambridge, Mass.) were used for plaque assay. The assay was done as previously described (Graham et al., 1988).
Lovastatin eliminates RSV replication in HEp-2 cells. Next, the inventors asked whether lovastatin could alter RSV replication in cell culture. HEp-2 cells in a 96-well plate were treated with either 10 μM lovastatin or left untreated beginning 24 hr prior to RSV infection. […]

HIV-1 = details: human H9 lymphocytic cell line, early stages of infection; cited from earlier work
HIV = details: cultured MT-2 cells; reported in U.S. Ser. No. 09/129,565; cited from earlier work
[8] = 5 μM, beginning 24 hr prior to infection, MOI 0.1, two days post infection
[9] = 10 μM lovastatin beginning 24 hr prior to infection, MOI 0.1

## COC(=O)[C@H](CCSC)NC(=O)c1ccc(NC[C@@H](N)CS)cc1-c1ccccc1 [FTI-277]
HPIV-3 [1]
  reduction of HPIV-3 replication: 10 fold
HPIV-3 [2]; [8]
  HPIV-3-induced syncytia formation: does not inhibit

## COC(=O)[C@H](CC(C)C)NC(=O)c1ccc(NC[C@@H](N)CS)cc1-c1cccc2ccccc12 [GGTI-298]
HPIV-3 [1]
  reduction of HPIV-3 replication: 100 fold
HPIV-3 [2]; [8]
  HPIV-3-induced syncytia formation: blocked

## CC(C)CCC[C@@H](C)[C@H]1CC[C@H]2[C@@H]3CC=C4C[C@@H](O)CC[C@]4(C)[C@H]3CC[C@]12C [cholesterol]
HPIV-3 [1]
  rescue of lovastatin inhibition of HPIV-3 replication: cannot rescue the inhibition

## CC(C)=CCC/C(C)=C/CC/C(C)=C/COP(=O)(O)OP(=O)(O)O [farnesylpyrophosphate]
HPIV-3 [1]
  rescue of lovastatin inhibition of HPIV-3 replication: partially restores
HPIV-3 [2]
  rescue of lovastatin inhibition of HPIV-3 syncytia formation: does not rescue the inhibition

## Cc1ccc(C)c(OCCCC(C)(C)C(=O)O)c1 [gemfibrozil]
[3]
  weight loss in uninfected mice: no significant weight loss
RSV [4]; 50 mg/day gemfibrozil oral gavage (FIG. 1)
  inhibition of RSV replication in mice: does not inhibit RSV replication
RSV [4]
  peak RSV titer in the lung: 6.5+/−0.43 log10 pfu/gm
RSV [5]
  peak percent weight loss on day 8 post infection: 40%
Vaccinia virus
  effect on vaccinia replication: not effected

## CC(C)=CCC/C(C)=C/CC/C(C)=C/CC/C(C)=C/COP(=O)(O)OP(=O)(O)O [geranylgeranylpyrophosphate]
HPIV-3 [1]
  rescue of lovastatin inhibition of HPIV-3 replication: rescues the inhibition
HPIV-3 [2]
  rescue of lovastatin inhibition of HPIV-3 syncytia formation: rescues the inhibition

## CC[C@H](C)C(=O)O[C@H]1C[C@@H](C)C=C2C=C[C@H](C)[C@H](CC[C@@H]3C[C@@H](O)CC(=O)O3)[C@H]21 [lovastatin]
[6]
  diminution of virus-induced cell-to-cell fusion: greater than 50%
  fusion events per well: 75+/−11 fusion events per well
HPIV-3 [1]; [9]
  HPIV-3 replication: completely blocks
[3]
  weight loss in uninfected mice: no significant weight loss
RSV [4]; 1 mg/day lovastatin beginning 1 day after RSV infection
  reduction in RSV viral titer: 10 fold
RSV [4]; 1 mg/day lovastatin beginning 3 days after infection
  reduction in RSV viral titer compared to untreated mice: no reduction
RSV [4]; 1 mg/day lovastatin beginning 3 days prior to infection
  RSV viral titer in the lung on day 4: 3.8+/−0.48 log10 pfu/gm
RSV [4]; 1 mg/day lovastatin beginning 3 days prior to infection, day 4
  reduction in RSV viral titer in lung compared to untreated mice: > 100 fold and 100- to 1000 fold
RSV [4]; 1 mg/day lovastatin oral gavage beginning three days prior to infection, vs PBS/gemfibrozil (FIG. 1)
  reduction of RSV replication: ~100 fold
RSV [4]; 1 mg/day lovastatin starting 3 days after RSV infection
  RSV viral titer in the lung on day 4: 6.3+/−1.1 log10 pfu/gm
RSV [4]; C57BL6 mice, 1 mg/day and 5 mg/day within 0.5 to 20 mg/day dose response
  inhibition of RSV replication, dose response: inhibited RSV replication equivalently
RSV [4]
  peak RSV titer in the lung: 4.7+/−0.4 log10 pfu/gm
RSV [5]; 1 mg/day lovastatin 1 day post infection
  peak weight loss 8 days post infection: 22%
RSV [5]; 1 mg/day lovastatin 1 day prior to infection
  peak weight loss 8 days post infection: 19%
RSV [5]; 1 mg/day lovastatin 3 days after RSV infection
  peak percent weight loss at 8 days post infection: about 30%
RSV [5]; 1 mg/day lovastatin 3 days prior to infection
  peak weight loss 8 days post infection: 17%
RSV [5]
  peak percent weight loss on day 8 post infection: 19%
RSV [5]; lovastatin treatment, data not shown
  RSV-induced illness: reduces RSV-induced illness
RSV [7]; 10 μM lovastatin beginning 24 hr prior to RSV infection (moi 0.1), titer for 8 days
  RSV replication in HEp-2 cells: completely inhibited
HPIV-3 [2]; [9]
  HPIV-3-induced syncytia formation: blocked
Vaccinia virus
  effect on vaccinia replication: not effected; also recorded: does not inhibit vaccinia virus replication
HIV-1
  reverse transcriptase activity in H9 cells infected with HIV-1: decrease in reverse transcriptase activity

## C[C@@]1(O)CCOC(=O)C1 [mevalonolactone]
HPIV-3 [1]
  rescue of lovastatin inhibition of HPIV-3 replication: rescues the inhibition
RSV [7]; 10 μM lovastatin for 24 hr followed by 20 μM mevalonolactone
  rescue of lovastatin inhibition of RSV replication: can be rescued
HPIV-3 [2]
  rescue of lovastatin inhibition of HPIV-3 syncytia formation: rescues the inhibition

## RhoA77-95: peptide comprising the sequence of amino acids 77-95 of RhoA (TDVILMCFSIDSPDSLENI; UniProt P61586 77-95, looked up, fragment)
HIV
  HIV infection and syncytia formation: inhibit both infection and syncytia formation
